{
  "source": "ChEMBL document CHEMBL1201862",
  "about": "“PubChem BioAssay data set” (2004)",
  "key": {"Cytochrome P450 2C9": {"biological_target": "Cytochrome P450 2C9 (Homo sapiens, UniProt P11712)", "sequence (P11712 whole entry)": "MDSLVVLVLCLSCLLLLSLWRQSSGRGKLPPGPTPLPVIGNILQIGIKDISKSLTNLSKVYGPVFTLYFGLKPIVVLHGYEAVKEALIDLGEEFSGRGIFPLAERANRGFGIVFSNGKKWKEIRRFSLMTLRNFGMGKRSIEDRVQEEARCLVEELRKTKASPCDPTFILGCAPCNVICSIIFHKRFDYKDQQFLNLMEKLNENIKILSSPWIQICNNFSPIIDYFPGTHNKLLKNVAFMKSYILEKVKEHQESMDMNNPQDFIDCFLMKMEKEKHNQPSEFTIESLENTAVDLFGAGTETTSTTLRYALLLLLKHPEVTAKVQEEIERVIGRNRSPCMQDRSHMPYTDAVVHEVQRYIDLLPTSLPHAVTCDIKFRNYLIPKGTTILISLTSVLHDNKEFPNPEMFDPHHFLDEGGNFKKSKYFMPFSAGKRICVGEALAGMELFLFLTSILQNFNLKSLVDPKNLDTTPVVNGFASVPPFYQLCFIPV", "conditions": "Potency"}, "Procathepsin L": {"biological_target": "Procathepsin L (Homo sapiens, UniProt P07711)", "sequence (P07711 whole entry)": "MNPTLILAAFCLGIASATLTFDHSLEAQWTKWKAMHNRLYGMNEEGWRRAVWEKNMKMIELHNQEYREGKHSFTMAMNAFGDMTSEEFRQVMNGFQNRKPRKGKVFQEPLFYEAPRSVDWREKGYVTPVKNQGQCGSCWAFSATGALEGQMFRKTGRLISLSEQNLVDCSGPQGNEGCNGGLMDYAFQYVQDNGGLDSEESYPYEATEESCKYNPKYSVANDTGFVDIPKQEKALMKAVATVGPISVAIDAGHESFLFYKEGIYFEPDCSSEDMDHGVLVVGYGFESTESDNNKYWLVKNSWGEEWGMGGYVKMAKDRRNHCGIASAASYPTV"}, "Aspartyl aminopeptidase": {"biological_target": "Aspartyl aminopeptidase (Plasmodium falciparum 3D7, UniProt Q8I2J3)", "sequence (Q8I2J3 whole entry)": "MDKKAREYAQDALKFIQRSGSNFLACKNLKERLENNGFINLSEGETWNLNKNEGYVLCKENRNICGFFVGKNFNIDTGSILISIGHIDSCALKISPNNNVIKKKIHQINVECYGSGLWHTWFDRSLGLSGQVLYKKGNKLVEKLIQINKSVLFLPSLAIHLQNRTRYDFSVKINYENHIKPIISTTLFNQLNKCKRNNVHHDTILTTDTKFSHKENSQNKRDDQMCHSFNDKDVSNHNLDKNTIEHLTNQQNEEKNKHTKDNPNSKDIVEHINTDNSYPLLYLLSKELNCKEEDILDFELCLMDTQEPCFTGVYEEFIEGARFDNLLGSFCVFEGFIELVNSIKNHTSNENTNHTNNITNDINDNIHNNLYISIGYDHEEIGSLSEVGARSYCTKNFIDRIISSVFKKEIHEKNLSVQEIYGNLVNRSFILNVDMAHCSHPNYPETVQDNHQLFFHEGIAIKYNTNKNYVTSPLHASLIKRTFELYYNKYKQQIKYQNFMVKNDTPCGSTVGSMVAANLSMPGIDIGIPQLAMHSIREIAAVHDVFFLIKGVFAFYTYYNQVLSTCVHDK"}, "Cytochrome P450 3A4": {"biological_target": "Cytochrome P450 3A4 (Homo sapiens, UniProt P08684)", "sequence (P08684 whole entry)": "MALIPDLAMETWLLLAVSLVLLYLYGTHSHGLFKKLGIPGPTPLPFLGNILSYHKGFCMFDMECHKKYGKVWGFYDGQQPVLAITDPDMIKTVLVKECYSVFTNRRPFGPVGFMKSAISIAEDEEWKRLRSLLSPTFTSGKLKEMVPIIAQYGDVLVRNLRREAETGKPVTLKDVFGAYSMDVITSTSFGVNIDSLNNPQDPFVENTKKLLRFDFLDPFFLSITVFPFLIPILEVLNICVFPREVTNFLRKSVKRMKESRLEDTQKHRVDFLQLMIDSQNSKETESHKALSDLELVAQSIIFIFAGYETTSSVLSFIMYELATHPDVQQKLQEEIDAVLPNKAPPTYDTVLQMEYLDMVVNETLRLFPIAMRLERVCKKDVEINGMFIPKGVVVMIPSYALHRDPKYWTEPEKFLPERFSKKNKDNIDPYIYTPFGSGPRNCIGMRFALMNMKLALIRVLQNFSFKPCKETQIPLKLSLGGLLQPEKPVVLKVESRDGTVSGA", "conditions": "Potency"}, "Hexokinase HKDC1": {"biological_target": "T1, Hexokinase HKDC1 (Homo sapiens, UniProt Q2TB90)", "T1 sequence (Q2TB90 whole entry)": "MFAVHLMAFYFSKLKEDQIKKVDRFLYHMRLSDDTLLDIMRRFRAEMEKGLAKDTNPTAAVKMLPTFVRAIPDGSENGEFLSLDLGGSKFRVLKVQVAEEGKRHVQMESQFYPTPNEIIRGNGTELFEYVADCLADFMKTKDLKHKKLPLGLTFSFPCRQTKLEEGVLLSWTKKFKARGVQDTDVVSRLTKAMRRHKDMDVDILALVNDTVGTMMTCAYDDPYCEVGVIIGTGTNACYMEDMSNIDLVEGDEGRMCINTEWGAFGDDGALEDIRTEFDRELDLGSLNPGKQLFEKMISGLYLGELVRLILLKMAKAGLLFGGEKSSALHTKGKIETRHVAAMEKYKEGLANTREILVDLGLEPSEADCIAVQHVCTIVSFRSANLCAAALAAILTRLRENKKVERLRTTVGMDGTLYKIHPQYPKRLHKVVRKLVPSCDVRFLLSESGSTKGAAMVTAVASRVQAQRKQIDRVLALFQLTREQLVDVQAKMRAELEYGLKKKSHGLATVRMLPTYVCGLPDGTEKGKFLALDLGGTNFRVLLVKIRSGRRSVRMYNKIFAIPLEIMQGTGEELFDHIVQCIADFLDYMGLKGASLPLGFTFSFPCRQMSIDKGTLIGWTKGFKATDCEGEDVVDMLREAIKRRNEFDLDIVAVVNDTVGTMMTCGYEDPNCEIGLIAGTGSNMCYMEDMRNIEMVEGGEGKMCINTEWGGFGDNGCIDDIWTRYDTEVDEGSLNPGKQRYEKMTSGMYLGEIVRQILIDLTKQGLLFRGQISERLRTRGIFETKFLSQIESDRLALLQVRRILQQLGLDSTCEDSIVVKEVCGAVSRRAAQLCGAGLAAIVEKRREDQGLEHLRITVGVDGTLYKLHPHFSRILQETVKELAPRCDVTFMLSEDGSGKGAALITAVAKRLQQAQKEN", "experiment": "inhibition of HKDC1 glucose phosphorylation – biochemical, W721R variant, dose response (AID 504729)", "type": "functional"}, "Streptococcus": {"system": "Streptococcus", "experiment": "GAS UMAA2166 growth inhibition – luminescence, BacTiterGlo, counter-screen for streptokinase expression inhibitor project, dose response (AID 1915)", "type": "functional, organism-based"}, "[1]": {"biological_target": "Transitional endoplasmic reticulum ATPase (Homo sapiens, UniProt P55072, C522A)", "sequence (P55072 2-806 C522A limits assumed)": "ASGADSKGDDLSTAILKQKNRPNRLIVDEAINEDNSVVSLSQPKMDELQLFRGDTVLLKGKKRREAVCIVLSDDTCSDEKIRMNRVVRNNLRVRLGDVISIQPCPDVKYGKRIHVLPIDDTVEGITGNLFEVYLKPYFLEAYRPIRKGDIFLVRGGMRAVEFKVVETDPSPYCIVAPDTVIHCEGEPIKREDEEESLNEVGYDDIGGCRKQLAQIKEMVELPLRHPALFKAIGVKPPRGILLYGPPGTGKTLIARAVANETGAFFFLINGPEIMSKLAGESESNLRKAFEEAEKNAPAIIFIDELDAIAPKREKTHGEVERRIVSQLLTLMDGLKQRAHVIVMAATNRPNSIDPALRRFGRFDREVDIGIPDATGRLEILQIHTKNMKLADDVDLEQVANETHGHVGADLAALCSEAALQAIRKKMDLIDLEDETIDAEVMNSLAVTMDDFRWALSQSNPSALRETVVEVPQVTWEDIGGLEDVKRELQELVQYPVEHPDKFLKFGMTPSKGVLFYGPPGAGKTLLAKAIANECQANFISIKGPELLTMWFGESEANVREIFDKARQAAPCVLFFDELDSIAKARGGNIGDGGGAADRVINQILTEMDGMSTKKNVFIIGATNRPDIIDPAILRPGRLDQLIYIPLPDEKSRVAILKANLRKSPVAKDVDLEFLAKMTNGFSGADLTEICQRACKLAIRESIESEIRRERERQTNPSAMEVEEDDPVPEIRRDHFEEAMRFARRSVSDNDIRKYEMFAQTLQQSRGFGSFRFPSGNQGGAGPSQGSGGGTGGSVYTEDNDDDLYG", "experiment": "C522A mutant p97 ATPase inhibitors, dose response, counter-screen for p97 inhibitor project, biochemical, luminescence (AID 1544)"}, "[2]": {"biological_target": "T2, Probable nicotinate-nucleotide adenylyltransferase (Staphylococcus aureus (strain N315), UniProt P65502)", "T2 sequence (P65502 whole entry)": "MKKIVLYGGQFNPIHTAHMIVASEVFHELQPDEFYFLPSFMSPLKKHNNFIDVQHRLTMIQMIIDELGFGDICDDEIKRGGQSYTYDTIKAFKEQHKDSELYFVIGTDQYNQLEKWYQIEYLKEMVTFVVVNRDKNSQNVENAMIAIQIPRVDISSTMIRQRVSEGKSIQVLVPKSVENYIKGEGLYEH", "type": "functional, Staphylococcus aureus subsp. aureus N315"}, "Streptokinase A": {"biological_target": "T3, Streptokinase A (Streptococcus pyogenes serotype M1, UniProt P10520)", "T3 sequence (P10520 whole entry)": "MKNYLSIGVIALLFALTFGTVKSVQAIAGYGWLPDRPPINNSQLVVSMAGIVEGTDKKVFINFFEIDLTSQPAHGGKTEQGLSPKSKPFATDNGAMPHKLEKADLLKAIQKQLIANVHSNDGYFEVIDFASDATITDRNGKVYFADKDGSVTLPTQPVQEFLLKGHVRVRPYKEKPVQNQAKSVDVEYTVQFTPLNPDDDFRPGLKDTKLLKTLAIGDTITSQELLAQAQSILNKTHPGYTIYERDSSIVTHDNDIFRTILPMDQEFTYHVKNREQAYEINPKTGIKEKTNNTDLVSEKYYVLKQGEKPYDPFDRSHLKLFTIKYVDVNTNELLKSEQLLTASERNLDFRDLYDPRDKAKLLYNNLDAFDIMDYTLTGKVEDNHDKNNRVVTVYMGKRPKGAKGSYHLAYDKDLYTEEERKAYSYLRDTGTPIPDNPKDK", "experiment": "viability-normalized secreted streptokinase activity reduction – plasminogen activation absorbance, OD405, dose response (AID 1914)", "type": "functional, Streptococcus pyogenes M1 GAS"}, "[3]": {"system": "Streptococcus sp. 'group A'", "experiment": "Streptococcus pyogenes SK(-)GAS viability under kanamycin – luminescence, BacTiterGlo, confirmation, counter-screen for streptokinase expression inhibitor project, dose response (AID 1900)", "type": "functional, organism-based"}, "[4]": {"biological_target": "T2, Probable nicotinate-nucleotide adenylyltransferase", "type": "functional, Staphylococcus aureus subsp. aureus N315", "conditions": "read-out: IC50_Mean"}, "Aminopeptidase N": {"biological_target": "T4, Aminopeptidase N (Plasmodium falciparum FcB1/Columbia, UniProt O96935)", "T4 sequence (O96935 whole entry)": "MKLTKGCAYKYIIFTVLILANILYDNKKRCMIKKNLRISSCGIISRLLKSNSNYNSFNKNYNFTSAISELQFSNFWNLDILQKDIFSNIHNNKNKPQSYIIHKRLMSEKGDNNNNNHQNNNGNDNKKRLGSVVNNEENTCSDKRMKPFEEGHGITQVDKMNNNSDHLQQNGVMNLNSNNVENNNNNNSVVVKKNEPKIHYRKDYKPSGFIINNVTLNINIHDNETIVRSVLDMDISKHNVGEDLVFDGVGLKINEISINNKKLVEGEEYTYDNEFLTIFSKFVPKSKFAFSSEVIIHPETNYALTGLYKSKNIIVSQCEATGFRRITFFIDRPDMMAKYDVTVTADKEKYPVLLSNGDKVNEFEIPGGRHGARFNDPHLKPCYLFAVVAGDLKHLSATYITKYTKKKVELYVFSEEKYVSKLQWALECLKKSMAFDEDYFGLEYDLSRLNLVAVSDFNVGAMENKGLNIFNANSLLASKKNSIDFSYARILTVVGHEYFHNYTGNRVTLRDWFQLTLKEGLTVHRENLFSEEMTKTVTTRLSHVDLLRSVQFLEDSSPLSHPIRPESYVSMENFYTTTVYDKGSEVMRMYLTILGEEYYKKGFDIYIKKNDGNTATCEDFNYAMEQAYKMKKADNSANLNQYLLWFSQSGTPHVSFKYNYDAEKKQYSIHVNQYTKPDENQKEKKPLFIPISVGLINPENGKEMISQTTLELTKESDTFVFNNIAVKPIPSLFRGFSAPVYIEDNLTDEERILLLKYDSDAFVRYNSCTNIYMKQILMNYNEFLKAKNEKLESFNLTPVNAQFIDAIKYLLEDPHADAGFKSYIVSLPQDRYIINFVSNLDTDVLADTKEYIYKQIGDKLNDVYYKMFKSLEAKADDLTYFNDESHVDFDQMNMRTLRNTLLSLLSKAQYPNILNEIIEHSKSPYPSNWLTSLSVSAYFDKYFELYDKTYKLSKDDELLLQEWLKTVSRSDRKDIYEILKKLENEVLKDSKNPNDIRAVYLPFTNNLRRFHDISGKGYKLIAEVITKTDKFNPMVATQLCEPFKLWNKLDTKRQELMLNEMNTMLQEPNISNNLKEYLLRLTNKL", "experiment": "malaria alanyl aminopeptidase activity blockers – biochemical, fluorogenic H-Leu-NHMec substrate, 1536-well (AID 1445)", "set-up": "species or system Plasmodium falciparum 3D7, 3D7"}, "[5]": {"biological_target": "Induced myeloid leukemia cell differentiation protein Mcl-1 (Homo sapiens, UniProt Q07820)", "sequence (Q07820 whole entry)": "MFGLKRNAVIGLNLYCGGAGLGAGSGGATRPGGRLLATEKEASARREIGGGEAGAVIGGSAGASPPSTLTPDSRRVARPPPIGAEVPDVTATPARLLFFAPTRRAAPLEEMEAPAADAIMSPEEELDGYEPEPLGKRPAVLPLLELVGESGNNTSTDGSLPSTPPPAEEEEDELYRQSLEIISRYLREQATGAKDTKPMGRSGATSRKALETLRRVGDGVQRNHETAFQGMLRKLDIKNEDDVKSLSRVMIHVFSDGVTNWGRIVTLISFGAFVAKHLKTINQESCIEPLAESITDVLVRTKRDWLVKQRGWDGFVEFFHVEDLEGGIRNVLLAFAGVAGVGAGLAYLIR", "type": "functional"}, "[6]": {"biological_target": "Transitional endoplasmic reticulum ATPase (Homo sapiens, UniProt P55072)", "experiment": "p97 ATPase inhibitors, dose response, biochemical (AID 1534)"}, "[7]": {"experiment": "blockers of HIV-1 ZM109 envelope-driven cell-cell fusion – HeLa effector, CEM target cells, luciferase, cherry-pick, dose response (AID 652058)", "type": "functional, cell-based"}, "[8]": {"experiment": "Luminescence Cell-Based Dose Confirmation HTS to Identify Inhibitors of Platelet Dense Granule Release. [Related pubchem assays: 1663 (Primary HTS), 1678 (Summary of Project)]", "type": "functional"}, "[9]": {"experiment": "blockers of HIV-1 envelope-mediated cell-cell fusion – cherry-pick, dose response (AID 652057)", "type": "functional, cell-based"}, "[10]": {"experiment": "Luminescence-based counterscreen assay for KLF5 inhibitors: dose response cell-based high throughput screening assay to identify cytotoxic compounds using the IEC-6 intestinal epithelial cell line. [Related pubchem assays: 1700 (Primary screen.), 1834 (Confirmation screen.), 1858 (Summary AID.), 1905 (Counterscreen.)]", "type": "functional"}, "[11]": {"experiment": "off-target signal loss in HeLa-CEM21 co-culture – HeLa F-luc CTL cells, cherry-picked, counter-screen for HIV-1 Env fusion inhibitor project, dose response (AID 652040);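 also: potency for signal decrease marking cytotoxic or nonspecific inhibition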", "type": "functional, cell-based"}, "[12]": {"experiment": "HIV-1 AD8 envelope cell-cell fusion blockers – cherry-pick, dose response (AID 652062);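 also: potency is for inhibitors of fusion seen as a drop in luminescence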", "type": "functional, cell-based"}, "[13]": {"experiment": "viability loss in CEM21 cells – cell-based, CellTiter-Glo luminescence, cherry-picked, cytotoxicity control for viral fusion inhibitor project, dose response (AID 652042);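 also: potency for signal decrease meaning cytotoxicity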", "type": "functional"}, "[14]": {"experiment": "HEK-293T viability loss after treatment – luminescence, T-cell screen hits, cytotoxicity control for TCR NF-kB inhibitor project, dose response (AID 489026);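 also: cells exposed to compound about 14 hours before the viability readout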", "type": "functional, cell-based"}, "[15]": {"experiment": "ADP-Glo luciferase signal interference – biochemical, luminescence, cherry-picked samples, set 2, artefact control for CDK5 inhibitor project, dose response (AID 504546)", "type": "functional, cell-based"}, "[16]": {"biological_target": "Luciferin 4-monooxygenase (Photinus pyralis, UniProt P08659)", "sequence (P08659 whole entry)": "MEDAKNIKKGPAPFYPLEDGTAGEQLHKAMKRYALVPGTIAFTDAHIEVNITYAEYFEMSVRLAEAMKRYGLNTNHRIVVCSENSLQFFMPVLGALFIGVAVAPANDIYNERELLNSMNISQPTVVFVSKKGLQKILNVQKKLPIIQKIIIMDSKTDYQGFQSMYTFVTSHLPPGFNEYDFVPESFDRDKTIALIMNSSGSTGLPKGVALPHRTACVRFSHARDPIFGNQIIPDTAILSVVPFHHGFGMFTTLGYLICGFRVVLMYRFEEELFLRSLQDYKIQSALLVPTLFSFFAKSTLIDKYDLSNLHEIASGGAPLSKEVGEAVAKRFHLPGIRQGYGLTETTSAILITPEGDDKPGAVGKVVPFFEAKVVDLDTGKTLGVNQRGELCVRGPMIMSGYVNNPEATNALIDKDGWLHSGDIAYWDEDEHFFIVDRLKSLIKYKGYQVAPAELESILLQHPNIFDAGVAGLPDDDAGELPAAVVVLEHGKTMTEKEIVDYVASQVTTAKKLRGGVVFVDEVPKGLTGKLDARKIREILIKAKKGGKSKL", "experiment": "inhibition of purified Photinus pyralis luciferase – biochemical, luminescence, dose response (AID 1891)"}, "[17]": {"biological_target": "Cyclin-dependent kinase 5/CDK5 activator 1 (Homo sapiens, UniProt Q00535)", "sequence (Q00535 whole entry)": "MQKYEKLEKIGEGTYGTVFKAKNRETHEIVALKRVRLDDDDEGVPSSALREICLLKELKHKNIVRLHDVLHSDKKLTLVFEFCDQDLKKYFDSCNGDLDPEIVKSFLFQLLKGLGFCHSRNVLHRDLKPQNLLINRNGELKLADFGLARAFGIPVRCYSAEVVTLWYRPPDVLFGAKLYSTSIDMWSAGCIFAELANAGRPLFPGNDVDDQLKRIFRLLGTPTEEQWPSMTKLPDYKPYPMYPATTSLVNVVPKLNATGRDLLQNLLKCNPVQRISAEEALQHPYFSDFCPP", "sequence (Q15078 whole entry, further chain)": "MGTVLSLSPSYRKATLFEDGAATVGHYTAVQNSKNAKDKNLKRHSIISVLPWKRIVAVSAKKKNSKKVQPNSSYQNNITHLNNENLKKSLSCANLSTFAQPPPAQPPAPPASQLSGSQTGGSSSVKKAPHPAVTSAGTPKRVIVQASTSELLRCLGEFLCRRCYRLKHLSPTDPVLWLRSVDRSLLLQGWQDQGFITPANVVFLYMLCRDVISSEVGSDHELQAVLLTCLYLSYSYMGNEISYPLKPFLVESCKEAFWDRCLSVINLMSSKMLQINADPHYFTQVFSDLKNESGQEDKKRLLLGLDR", "experiment": "blockade of human CDK5 activity – biochemical, cherry-picked samples, set 2, dose response (AID 504545)"}},
  "note": "The source made the active and inactive calls.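 For IC50 Mean in this document: confirmatory dose-response retesting of NadD inhibitor hits first found in an ultra-high-throughput screen.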",
  "data": [
    {"compound": "Clc1ccc([C@@H](c2ccccc2Cl)C(Cl)Cl)cc1", "values": [
      {"measurement": "AC50", "setting": "Cytochrome P450 2C9", "result": "15.8 µM (inconclusive)"}
    ]},
    {"compound": "O=C(Nc1ccc(Cl)cc1Cl)Nn1cnnc1", "values": [
      {"measurement": "IC50", "setting": "Procathepsin L", "result": "> 59.6 µM (not active)"},
      {"measurement": "IC50", "setting": "Aspartyl aminopeptidase", "result": "791 nM (active)"}
    ]},
    {"compound": "N#C/C(=C\\c1ccc(O)cc1)C(=O)O", "note": "[alpha-CYANO-4-HYDROXYCINNAMIC ACID]", "values": [
      {"measurement": "AC50", "setting": "Cytochrome P450 3A4", "result": "31.6 µM (inconclusive)"}
    ]},
    {"compound": "C=CCn1c(SCC(=O)Nc2sc3c(c2C#N)CCC(C)C3)nc2cc(C(=O)O)ccc2c1=O", "note": "(stereo not given)", "values": [
      {"measurement": "IC50", "setting": "Hexokinase HKDC1", "result": "> 80 µM (inactive)"}
    ]},
    {"compound": "O=c1cc(-c2ccc(O)c(-c3c(O)cc(O)c4c(=O)cc(-c5ccc(O)cc5)oc34)c2)oc2cc(O)cc(O)c12", "note": "[AMENTOFLAVONE]", "values": [
      {"measurement": "EC50", "setting": "Streptococcus", "result": "> 150 µM (not active)"},
      {"measurement": "IC50", "setting": "[1]", "result": "> 50 µM (not active)"},
      {"measurement": "IC50", "setting": "[2]", "result": "9.38 µM (active)"},
      {"measurement": "EC50", "setting": "Streptokinase A", "result": "> 150 µM (not active)"},
      {"measurement": "EC50", "setting": "[3]", "result": "1.68 µM (active)"},
      {"measurement": "IC50", "setting": "[4]", "result": "29.4 µM (active)"},
      {"measurement": "IC50", "setting": "Aminopeptidase N", "result": "108 µM (active)"},
      {"measurement": "IC50", "setting": "[5]", "result": "1.63 µM (active)"},
      {"measurement": "IC50", "setting": "[6]", "result": "8.98 µM (active)"}
    ]},
    {"compound": "Cc1ccc(C(=O)O/N=C(\\N)c2ccccn2)c(Cl)c1", "values": [
      {"measurement": "AC50", "setting": "[7]", "result": "21.8 µM (active)"},
      {"measurement": "EC50", "setting": "[8]", "result": "1.2 µM (active)"},
      {"measurement": "AC50", "setting": "[9]", "result": "3.44 µM (active)"},
      {"measurement": "IC50", "setting": "[10]", "result": "20.1 µM (not active)"},
      {"measurement": "AC50", "setting": "[11]", "result": "9.61 µM (active)"},
      {"measurement": "AC50", "setting": "[12]", "result": "6.87 µM (active)"},
      {"measurement": "AC50", "setting": "[13]", "result": "17.3 µM (active)"},
      {"measurement": "IC50", "setting": "[14]", "result": "> 80 µM (inactive)"},
      {"measurement": "AC50", "setting": "[15]", "result": "92.9 µM (active)"},
      {"measurement": "EC50", "setting": "[16]", "result": "782 nM (active)"},
      {"measurement": "AC50", "setting": "[17]", "result": "21.4 µM (active)"}
    ]}
  ]
}
